Where “and” joins values, the source holds several entries; their conditions need not be identical. Identical values can stand only once.
Tests used:
STK24 (MST3) = STK24 (MST3) (Homo sapiens (Human), UniProt Q9Y6E0); assay: Z-lyte biochemical IC50 assay (Invitrogen); settings: ATP concentration matched the Km
Protocol: (§1) STK4 (MST1), STK3 (MST2); STK24 (MST3) and MST4 Assays
(§2) Biochemical IC50s were measured at Invitrogen using Z-lyte technology. Briefly, for STK4, the 2×STK4 (MST1)/Ser/Thr 07 mixture was prepared in 50 mM HEPES pH 7.5, 0.01% BRIJ35, 10 mM MgCl2, 1 mM EGTA. The final 10 μL Kinase Reaction consisted of 6.25-160 ng STK4 (MST1) and 2 μM Ser/Thr 07 in 50 mM HEPES pH 7.5, 0.01% BRIJ-35, 10 mM MgCl2, 1 mM EGTA. After the 1 hour Kinase Reaction incubation, 5 μL of a 1:100000 dilution of Development Reagent A was added. Compounds were screened in a 10 point titration with 3-fold serial dilutions starting at a concentration of 10 μM. The biochemical IC50s against other STK family members were measured similarly. The ATP concentration used matched the Km for each kinase.

STK3 (MST2) = STK3 (MST2) (Homo sapiens (Human), UniProt Q13188); assay: Z-lyte biochemical IC50 assay (Invitrogen); settings: ATP concentration matched the Km
Sequence of STK3 (MST2) (Q13188 whole entry): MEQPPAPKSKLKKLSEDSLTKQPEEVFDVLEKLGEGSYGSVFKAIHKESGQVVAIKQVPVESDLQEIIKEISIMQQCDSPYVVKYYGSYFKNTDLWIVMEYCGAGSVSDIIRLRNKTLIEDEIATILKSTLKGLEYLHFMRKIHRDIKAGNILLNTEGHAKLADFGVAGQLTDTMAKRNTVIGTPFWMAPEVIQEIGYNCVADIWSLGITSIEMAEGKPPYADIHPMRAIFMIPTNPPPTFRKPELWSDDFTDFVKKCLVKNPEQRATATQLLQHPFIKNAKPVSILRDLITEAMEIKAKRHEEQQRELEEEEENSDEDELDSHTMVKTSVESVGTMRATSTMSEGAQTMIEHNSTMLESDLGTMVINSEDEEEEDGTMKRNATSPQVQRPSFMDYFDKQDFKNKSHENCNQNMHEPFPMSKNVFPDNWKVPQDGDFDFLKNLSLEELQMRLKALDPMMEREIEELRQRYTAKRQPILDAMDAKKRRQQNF
Protocol: as §1, §2

STK4 (MST1) = STK4 (MST1) (Homo sapiens (Human), UniProt Q13043); assay: Z-lyte biochemical IC50 assay (Invitrogen); settings: ATP concentration matched the Km
Sequence of STK4 (MST1) (Q13043 whole entry): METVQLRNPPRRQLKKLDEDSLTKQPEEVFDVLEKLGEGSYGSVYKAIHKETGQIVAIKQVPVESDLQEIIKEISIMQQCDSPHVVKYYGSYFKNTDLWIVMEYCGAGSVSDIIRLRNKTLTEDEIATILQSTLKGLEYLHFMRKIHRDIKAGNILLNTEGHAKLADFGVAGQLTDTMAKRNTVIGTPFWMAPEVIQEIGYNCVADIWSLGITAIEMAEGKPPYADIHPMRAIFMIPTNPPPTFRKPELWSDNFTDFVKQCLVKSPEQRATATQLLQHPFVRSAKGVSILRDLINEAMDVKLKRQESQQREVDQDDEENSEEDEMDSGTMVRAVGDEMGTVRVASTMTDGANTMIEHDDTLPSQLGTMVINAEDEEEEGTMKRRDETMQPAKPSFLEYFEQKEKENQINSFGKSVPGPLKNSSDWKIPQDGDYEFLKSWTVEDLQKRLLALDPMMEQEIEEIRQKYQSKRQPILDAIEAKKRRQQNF
Protocol: as §1, §2

YAP1 = assay: Western blotting; type: cell-based; settings: H929 and MM.1S cells, 3 μM and 10 μM, 72 hours
Description: (§3) MM.1S, KMS20 and H929 cells are counted, diluted and plated. Cells are then […] with DMSO or different concentration of a compound of the present application for 6 hrs, 24 hrs or 48 hrs. MM cells are then collected and centrifuged at RT and the pellets are re-suspended in lysis buffer. Cell lysates are subjected to sodium dodecyl sulfate-polyacrylamide gel electrophoresis SDS-PAGE, transferred to nitrocellulose membranes, and immunoblotted with different antibodies.
(§4) MM.1S, KMS20 and H929 cells were counted, diluted and plated in six-well plates to a final concentration of 500,000 cells/well. Cells were then […] with DMSO or different concentration of a compound of the present application for 6 hrs, 24 hrs or 48 hrs. MM cells were then collected and centrifuged for 5 min, 1300 rpm at RT. The pellets were re-suspended in lysis buffer Laemli 1× (Laemli 5×: SDS 10%, DTT 500 mM, Tris-HCl pH6.8 0.4M, BromoFenol Blue, Glycerol 50%). Cell lysates were subjected to sodium dodecyl sulfate-polyacrylamide gel electrophoresis SDS-PAGE, transferred to nitrocellulose membranes, and immunoblotted with different antibodies: YAP1 (#4912), p-YAP1 (S127) (#13008), LATS1 (#9153), p-LATS1 (Thr1079) (#8654), MOB1 (#3863), p-MOB1 (Thr12) (#8843), p-MST1/p-MST2 (Thr183/Thr180) (#3681), p21 (#2947), PARP (#9532), ERK, STAT, and GAPDH (#5174) from Cell Signaling, Beverly, Mass., United States; STK4 (ab57836) (from Abcam, Cambridge, Mass., United States); PUMA (sc-28226), BAX (sc-20067), from Santa Cruz, Dallas, Tex., United States; β-actin from Sigma-Aldrich (St. Louis, Mo., United States). All antibodies were diluted 1:500, except for β-actin antibody (1:50,000 dilution). In FIG. 8, H929 cells were treated with Compound I-9 or DMSO at 1 μM concentration for 24 hours. Lysates were then obtained and immunoblot was performed using antibodies against PARP, YAP1, PUMA, BAX. p21, and GAPDH.
In FIG. 10A, H929 and MM.1S cells were treated with Compound I-1 or DMSO at 1 μM and 10 μM concentrations for 16 hours. Lysates were then obtained and immunoblot was performed using antibodies against YAP1 and GAPDH.
In FIG. 12, H929 and MM. 1S cells were treated with Compound I-9, Compound I-12, or DMSO at 3 μM and 10 μM concentrations for 72 hours. Lysates were then obtained and immunoblot was performed using antibodies against YAP1 and Actin as loading control.
FIG. 13 show a Western blot of H929 and MM.1S cells treated with Compound I-13, Compound I-28, Compound I-9, KIN001-305, BMS536924, or DMSO at 1 μM concentration for 16 hours. Lysates were then obtained and immunoblot was performed using antibodies against YAP1, Actin, and pMOB1.

STK4 = STK4 (Homo sapiens (Human), UniProt Q13043); assay: KiNativ Platform experiment, MM.1S cell lysates, biotinylated ATP, Western blot; type: binding; settings: 10 μM, 20 minutes, then biotinylated ATP 10 minutes
Sequence of STK4 (Q13043 whole entry): as above
Protocol: FIG. 32A and FIG. 32B show the results of a KiNativ™ Platform experiment obtained after incubating MM.1S cell lysates with 10 μM of the indicated compounds for 20 minutes, followed by incubation with biotinylated ATP for 10 minutes. FIG. 32A is a graph showing the ratio of MEK2 to STK4 derived from the Western blotting band signals in FIG. 32B, in MM.1S cell lysates treated with 10 μM of Compound I-9, I-13, or I-27 or KIN001-305 followed by incubation with biotinylated ATP. FIG. 32B is a Western blot showing the levels of STK4 and MEK2 in MM.1S cells treated with 10 μM of Compound I-9, I-13, or I-27 or KIN001-305 followed by incubation with biotinylated ATP.

p-MOB1 = assay: Western blotting; type: cell-based; settings: MM.1S cells, 1 μM and 10 μM, 6 hours
Description: as §3, §4
In FIGS. 26A-26J, MM.1S cells were treated with Compound I-6, Compound I-31, Compound I-30, Compound I-22, Compound I-27, Compound I-1, Compound I-23, Compound I-13, Compound I-28, Compound I-9, or DMSO at 1 μM and 10 μM concentrations for 6 hours. Lysates were then obtained and immunoblot was performed using antibodies against MOB1 and p-MOB1. As shown from FIGS. 26A-26J, Compound I-22, Compound I-27, Compound I-1, Compound I-23, Compound I-13, Compound I-28, and Compound I-9 reduced PMOB1 levels at different concentrations.

Sequence of STK24 (MST3) (Q9Y6E0 whole entry): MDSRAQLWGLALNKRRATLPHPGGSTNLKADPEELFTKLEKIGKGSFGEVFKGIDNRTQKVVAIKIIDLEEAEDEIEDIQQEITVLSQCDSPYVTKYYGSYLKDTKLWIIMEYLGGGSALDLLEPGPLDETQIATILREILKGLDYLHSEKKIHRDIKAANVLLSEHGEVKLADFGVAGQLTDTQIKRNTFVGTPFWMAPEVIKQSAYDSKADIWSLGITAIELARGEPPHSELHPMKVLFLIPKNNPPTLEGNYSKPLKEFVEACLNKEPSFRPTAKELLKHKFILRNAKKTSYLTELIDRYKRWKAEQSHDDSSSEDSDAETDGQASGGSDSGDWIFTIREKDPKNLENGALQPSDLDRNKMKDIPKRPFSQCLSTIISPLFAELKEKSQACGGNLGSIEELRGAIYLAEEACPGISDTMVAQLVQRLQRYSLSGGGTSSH

| Structure (SMILES) | IC50 (STK24 (MST3)) | IC50 (STK3 (MST2)) | IC50 (STK4 (MST1)) | affinity for STK4, as of ATP binding (STK4) | YAP1 levels (YAP1) | PMOB1 levels (p-MOB1) |
| --- | --- | --- | --- | --- | --- | --- |
| Nc1ncc(-c2cccc(S(=O)(=O)NC3CC3)c2)cc1-c1ccc2c(c1)CCNC2=O [Compound I-12, 3-(6-amino-5-(1-oxo-1,2,3,4-tetrahydroisoquinolin-6-yl)pyridin-3-yl)-N-cyclopropylbenzenesulfonamide] | 200 to 900 nM | 40 to 200 nM | 40 to 200 nM |  | upregulation |  |
| Nc1ncc(-c2cc([N+](=O)[O-])ccc2Cl)cc1-c1ccc2c(c1)CCNC2=O [Compound I-4, 6-(2-amino-5-(2-chloro-5-nitrophenyl)pyridin-3-yl)-3,4-dihydroisoquinolin-1(2H)-one] | > 900 nM |  | > 900 nM |  |  |  |
| Nc1ncc(-c2cc3c(cc2F)OCC(=O)N3)cc1-c1ccc2c(c1)CCNC2=O [Compound I-23, 6-(6-amino-5-(1-oxo-1,2,3,4-tetrahydroisoquinolin-6-yl)pyridin-3-yl)-7-fluoro-2H-benzo[b][1,4]oxazin-3(4H)-one] |  | 40 to 200 nM | < 40 nM |  |  | reduced |
| Nc1ncc(-c2cc([N+](=O)[O-])c(Cl)cc2F)cc1-c1ccc2c(c1)CCNC2=O [Compound I-22, 6-(2-amino-5-(4-chloro-2-fluoro-5-nitrophenyl)pyridin-3-yl)-3,4-dihydroisoquinolin-1(2H)-one] |  | 40 to 200 nM | 40 to 200 nM |  |  | reduced |
| Nc1ncc(-c2scnc2Cl)cc1-c1ccc2c(c1)CCNC2=O [Compound I-76, 6-(2-amino-5-(4-chlorothiazol-5-yl)pyridin-3-yl)-3,4-dihydroisoquinolin-1(2H)-one] | > 900 nM | 40 to 200 nM | < 40 nM and 40 to 200 nM |  |  |  |
| CN(C1CC1)S(=O)(=O)c1ccc(-c2cnc(N)c(-c3ccc4c(c3)CNC4=O)c2)c(F)c1 [Compound I-74, 4-(6-amino-5-(1-oxoisoindolin-5-yl)pyridin-3-yl)-N-cyclopropyl-3-fluoro-N-methylbenzenesulfonamide] | > 900 nM | < 40 nM | < 40 nM and 40 to 200 nM |  |  |  |
| Nc1ncc(-c2ccccc2F)cc1-c1ccc2c(c1)CCNC2=O [Compound I-3, 6-(2-amino-5-(2-fluorophenyl)pyridin-3-yl)-3,4-dihydroisoquinolin-1(2H)-one] | > 900 nM |  | 40 to 200 nM |  |  |  |
| Nc1ncc(-c2cnccc2F)cc1-c1ccc2c(c1)CCNC2=O [Compound I-5, 6-(6-amino-4′-fluoro-[3,3′-bipyridin]-5-yl)-3,4-dihydroisoquinolin-1(2H)-one] | > 900 nM |  | 200 to 900 nM |  |  |  |
| Nc1ncc(-c2cncc3ncsc23)cc1-c1ccc2c(c1)CCNC2=O [Compound I-56, 6-(2-amino-5-(thiazolo[4,5-c]pyridin-7-yl)pyridin-3-yl)-3,4-dihydroisoquinolin-1(2H)-one] |  |  | 200 to 900 nM |  |  |  |
| N#Cc1cccc(-c2cnc(N)c(-c3ccc4c(c3)CCNC4=O)c2)c1 [Compound I-75, 3-(6-amino-5-(1-oxo-1,2,3,4-tetrahydroisoquinolin-6-yl)pyridin-3-yl)benzonitrile] | 200 to 900 nM | 40 to 200 nM | 40 to 200 nM |  |  |  |

Continued, in another order:

| IC50 (STK24 (MST3)) | IC50 (STK3 (MST2)) | IC50 (STK4 (MST1)) | affinity for STK4, as of ATP binding (STK4) | Structure (SMILES) | YAP1 levels (YAP1) | PMOB1 levels (p-MOB1) |
| --- | --- | --- | --- | --- | --- | --- |
| > 900 nM |  | > 900 nM |  | CCNC(=O)c1ccc(F)c(-c2cnc(N)c(-c3ccc4c(c3)CCNC4=O)c2)c1 [Compound I-6, 3-(6-amino-5-(1-oxo-1,2,3,4-tetrahydroisoquinolin-6-yl)pyridin-3-yl)-N-ethyl-4-fluorobenzamide] |  |  |
|  |  | < 40 nM | highest affinity | CN(C1CC1)S(=O)(=O)c1ccc(-c2cnc(N)c(-c3ccc4c(c3)CCNC4=O)c2)cc1 [KIN001-305, reference compound] |  |  |
|  |  | 40 to 200 nM | highest affinity | Nc1ncc(-c2cc([N+](=O)[O-])c(NCc3ccccc3)cc2F)cc1-c1ccc2c(c1)CCNC2=O [Compound I-27, 6-(2-amino-5-(4-(benzylamino)-2-fluoro-5-nitrophenyl)pyridin-3-yl)-3,4-dihydroisoquinolin-1(2H)-one] |  | reduced |
| > 900 nM |  | < 40 nM |  | Nc1ncc(-c2cccc([N+](=O)[O-])c2)cc1-c1ccc2c(c1)CCNC2=O [Compound I-2, 6-(2-amino-5-(3-nitrophenyl)pyridin-3-yl)-3,4-dihydroisoquinolin-1(2H)-one] |  |  |
| 40 to 200 nM | < 40 nM | < 40 nM |  | COc1cc(S(=O)(=O)N(C)C2CC2)ccc1-c1cnc(N)c(-c2ccc3c(c2)CCNC3=O)c1 [Compound I-72, 4-(6-amino-5-(1-oxo-1,2,3,4-tetrahydroisoquinolin-6-yl)pyridin-3-yl)-N-cyclopropyl-3-methoxy-N-methylbenzenesulfonamide] |  |  |
